Laboratory results published in ChEMBL document CHEMBL1649138, “In vitro activity of Isavuconazole against Aspergillus species and zygomycetes according to the methodology of the European Committee on Antimicrobial Susceptibility Testing” (Antimicrob Agents Chemother, 2009).
≈ marks a conversion by molar mass, not a printed value.

Key:
[1] = system: Aspergillus fumigatus; assay: Antifungal activity against Aspergillus fumigatus by EUCAST method; assay type: functional
[2] = system: Aspergillus terreus; assay: Antifungal activity against amphotericin B-resistant Aspergillus terreus by EUCAST method; assay type: functional
[3] = system: Aspergillus flavus; assay: Antifungal activity against Aspergillus flavus by EUCAST method; assay type: functional
[4] = system: Aspergillus niger; assay: Antifungal activity against Aspergillus niger by EUCAST method; assay type: functional
[5] = system: Rhizomucor; assay: Antifungal activity against Rhizomucor by EUCAST method; assay type: functional
[6] = system: Absidia; assay: Antifungal activity against Absidia by EUCAST method; assay type: functional
[7] = system: Rhizopus; assay: Antifungal activity against Rhizopus by EUCAST method; assay type: functional
[8] = system: Mucor; assay: Antifungal activity against Mucor by EUCAST method; assay type: functional
[9] = system: Cunninghamella; assay: Antifungal activity against Cunninghamella by EUCAST method; assay type: functional
[10] = system: Aspergillus fumigatus; assay: Antifungal activity against Aspergillus fumigatus hyphae by EUCAST method; assay type: functional
[11] = system: Aspergillus terreus; assay: Antifungal activity against amphotericin B-resistant Aspergillus terreus hyphae by EUCAST method; assay type: functional
[12] = system: Aspergillus flavus; assay: Antifungal activity against Aspergillus flavus hyphae by EUCAST method; assay type: functional
[13] = system: Aspergillus niger; assay: Antifungal activity against Aspergillus niger hyphae by EUCAST method; assay type: functional
[14] = system: Rhizomucor; assay: Antifungal activity against Rhizomucor hyphae by EUCAST method; assay type: functional
[15] = system: Absidia; assay: Antifungal activity against Absidia hyphae by EUCAST method; assay type: functional
[16] = system: Rhizopus; assay: Antifungal activity against Rhizopus hyphae by EUCAST method; assay type: functional
[17] = system: Mucor; assay: Antifungal activity against Mucor hyphae by EUCAST method; assay type: functional
[18] = system: Cunninghamella; assay: Antifungal activity against Cunninghamella hyphae by EUCAST method; assay type: functional
[19] = system: Aspergillus fumigatus; assay: Fungicidal activity against Aspergillus fumigatus; assay type: functional
[20] = system: Aspergillus terreus; assay: Fungicidal activity against amphotericin B-resistant Aspergillus terreus; assay type: functional
[21] = system: Aspergillus flavus; assay: Fungicidal activity against Aspergillus flavus; assay type: functional
[22] = system: Aspergillus niger; assay: Fungicidal activity against Aspergillus niger; assay type: functional
[23] = system: Rhizomucor; assay: Fungicidal activity against Rhizomucor; assay type: functional
[24] = system: Absidia; assay: Fungicidal activity against Absidia; assay type: functional
[25] = system: Rhizopus; assay: Fungicidal activity against Rhizopus; assay type: functional
[26] = system: Mucor; assay: Fungicidal activity against Mucor; assay type: functional
[27] = system: Cunninghamella; assay: Fungicidal activity against Cunninghamella; assay type: functional
[28] = system: Aspergillus fumigatus; assay: Antifungal activity against Aspergillus fumigatus by broth microdilution method; assay type: functional
[29] = system: Aspergillus flavus; assay: Antifungal activity against Aspergillus flavus by broth microdilution method; assay type: functional
[30] = system: Aspergillus terreus; assay: Antifungal activity against amphotericin B-resistant Aspergillus terreus by broth microdilution method; assay type: functional
[31] = system: Aspergillus niger; assay: Antifungal activity against Aspergillus niger by broth microdilution method; assay type: functional
[32] = system: Plasma; assay: Plasma concentration in human; assay type: ADME, cell-free

C[C@@H](c1ncncc1F)[C@](O)(Cn1cncn1)c1ccc(F)cc1F [VORICONAZOLE]
MIC50 [1]: 1 µg/mL (≈ 2.86 µM)
MIC90 [1]: 1 µg/mL (≈ 2.86 µM)
MIC50 [2]: 0.5 µg/mL (≈ 1.43 µM)
MIC90 [2]: 2 µg/mL (≈ 5.73 µM)
MIC50 [3]: 1 µg/mL (≈ 2.86 µM)
MIC90 [3]: 1 µg/mL (≈ 2.86 µM)
MIC50 [4]: 2 µg/mL (≈ 5.73 µM)
MIC90 [4]: 2 µg/mL (≈ 5.73 µM)
MIC [5]: > 8 µg/mL
MIC50 [5]: > 8 µg/mL
MIC90 [5]: > 8 µg/mL
MIC [6]: > 8 µg/mL
MIC50 [6]: > 8 µg/mL
MIC90 [6]: > 8 µg/mL
MIC [7]: > 8 µg/mL
MIC50 [7]: > 8 µg/mL
MIC90 [7]: > 8 µg/mL
MIC [8]: > 8 µg/mL
MIC50 [8]: > 8 µg/mL
MIC90 [8]: > 8 µg/mL
MIC [9]: > 8 µg/mL
MIC50 [9]: > 8 µg/mL
MIC90 [9]: > 8 µg/mL
MIC90 [10]: 1 µg/mL (≈ 2.86 µM)
MIC90 [11]: 1 µg/mL (≈ 2.86 µM)
MIC90 [12]: 2 µg/mL (≈ 5.73 µM)
MIC90 [13]: 4 µg/mL (≈ 11.5 µM)
MIC [14]: > 8 µg/mL
MIC90 [14]: > 8 µg/mL
MIC [15]: > 8 µg/mL
MIC90 [15]: > 8 µg/mL
MIC [16]: > 8 µg/mL
MIC90 [16]: > 8 µg/mL
MIC [17]: > 8 µg/mL
MIC90 [17]: > 8 µg/mL
MIC [18]: > 8 µg/mL
MIC90 [18]: > 8 µg/mL
MIC90 [19]: 4 µg/mL (≈ 11.5 µM)
MIC90 [20]: 2 µg/mL (≈ 5.73 µM)
MIC90 [21]: 4 µg/mL (≈ 11.5 µM)
MIC90 [22]: 8 µg/mL (≈ 22.9 µM)
MIC [23]: > 8 µg/mL
MIC90 [23]: > 8 µg/mL
MIC [24]: > 8 µg/mL
MIC90 [24]: > 8 µg/mL
MIC [25]: > 8 µg/mL
MIC90 [25]: > 8 µg/mL
MIC [26]: > 8 µg/mL
MIC90 [26]: > 8 µg/mL
MIC [27]: > 8 µg/mL
MIC90 [27]: > 8 µg/mL

C[C@@H](c1nc(-c2ccc(C#N)cc2)cs1)[C@](O)(Cn1cncn1)c1cc(F)ccc1F [ISAVUCONAZOLE]
MIC50 [1]: 1 µg/mL (≈ 2.29 µM)
MIC90 [1]: 1 µg/mL (≈ 2.29 µM)
MIC50 [2]: 0.5 µg/mL (≈ 1.14 µM)
MIC90 [2]: 2 µg/mL (≈ 4.57 µM)
MIC50 [3]: 1 µg/mL (≈ 2.29 µM)
MIC90 [3]: 2 µg/mL (≈ 4.57 µM)
MIC50 [4]: 2 µg/mL (≈ 4.57 µM)
MIC90 [4]: 4 µg/mL (≈ 9.14 µM)
MIC50 [5]: > 8 µg/mL
MIC90 [5]: > 8 µg/mL
MIC50 [6]: 4 µg/mL (≈ 9.14 µM)
MIC90 [6]: > 8 µg/mL
MIC50 [7]: 4 µg/mL (≈ 9.14 µM)
MIC90 [7]: > 8 µg/mL
MIC50 [8]: > 8 µg/mL
MIC90 [8]: > 8 µg/mL
MIC50 [9]: 4 µg/mL (≈ 9.14 µM)
MIC90 [9]: > 8 µg/mL
MIC90 [10]: 1 µg/mL (≈ 2.29 µM)
MIC90 [11]: 2 µg/mL (≈ 4.57 µM)
MIC90 [12]: 2 µg/mL (≈ 4.57 µM)
MIC90 [13]: 8 µg/mL (≈ 18.3 µM)
MIC90 [14]: > 8 µg/mL
MIC90 [15]: > 8 µg/mL
MIC90 [16]: > 8 µg/mL
MIC90 [17]: > 8 µg/mL
MIC90 [18]: > 8 µg/mL
MIC [19]: 1 µg/mL (≈ 2.29 µM)
MIC90 [19]: 1 µg/mL (≈ 2.29 µM)
MIC90 [20]: 2 µg/mL (≈ 4.57 µM)
MIC90 [21]: 2 µg/mL (≈ 4.57 µM)
MIC90 [22]: > 8 µg/mL
MIC90 [23]: > 8 µg/mL
MIC90 [24]: > 8 µg/mL
MIC90 [25]: > 8 µg/mL
MIC90 [26]: > 8 µg/mL
MIC90 [27]: > 8 µg/mL
MIC [28]: 0.63 µg/mL (≈ 1.44 µM)
MIC [29]: 0.76 µg/mL (≈ 1.74 µM)
MIC [30]: 0.68 µg/mL (≈ 1.55 µM)
MIC [31]: 2.36 µg/mL (≈ 5.39 µM)
Cp [32]: > 1700 ng/mL

CC[C@@H]([C@H](C)O)n1ncn(-c2ccc(N3CCN(c4ccc(OC[C@@H]5CO[C@@](Cn6cncn6)(c6ccc(F)cc6F)C5)cc4)CC3)cc2)c1=O [POSACONAZOLE]
MIC50 [1]: 0.5 µg/mL (≈ 0.713 µM)
MIC90 [1]: 1 µg/mL (≈ 1.43 µM)
MIC [2]: 0.125 µg/mL (≈ 0.178 µM)
MIC50 [2]: 0.125 µg/mL (≈ 0.178 µM)
MIC90 [2]: 0.5 µg/mL (≈ 0.713 µM)
MIC50 [3]: 0.125 µg/mL (≈ 0.178 µM)
MIC90 [3]: 0.5 µg/mL (≈ 0.713 µM)
MIC [4]: 0.25 µg/mL (≈ 0.357 µM)
MIC50 [4]: 0.25 µg/mL (≈ 0.357 µM)
MIC90 [4]: 0.5 µg/mL (≈ 0.713 µM)
MIC [5]: 1 µg/mL (≈ 1.43 µM)
MIC50 [5]: 1 µg/mL (≈ 1.43 µM)
MIC90 [5]: 4 µg/mL (≈ 5.71 µM)
MIC [6]: 0.5 µg/mL (≈ 0.713 µM)
MIC50 [6]: 0.5 µg/mL (≈ 0.713 µM)
MIC90 [6]: 1 µg/mL (≈ 1.43 µM)
MIC50 [7]: 2 µg/mL (≈ 2.85 µM)
MIC90 [7]: 4 µg/mL (≈ 5.71 µM)
MIC50 [8]: 1 µg/mL (≈ 1.43 µM)
MIC90 [8]: 1 µg/mL (≈ 1.43 µM)
MIC [9]: 1 µg/mL (≈ 1.43 µM)
MIC50 [9]: 1 µg/mL (≈ 1.43 µM)
MIC90 [9]: 1 µg/mL (≈ 1.43 µM)
MIC90 [10]: 0.5 µg/mL (≈ 0.713 µM)
MIC90 [11]: 1 µg/mL (≈ 1.43 µM)
MIC90 [12]: 1 µg/mL (≈ 1.43 µM)
MIC [13]: 1 µg/mL (≈ 1.43 µM)
MIC90 [13]: 1 µg/mL (≈ 1.43 µM)
MIC90 [14]: 8 µg/mL (≈ 11.4 µM)
MIC [15]: 4 µg/mL (≈ 5.71 µM)
MIC90 [15]: 4 µg/mL (≈ 5.71 µM)
MIC90 [16]: > 8 µg/mL
MIC90 [17]: > 8 µg/mL
MIC90 [18]: 8 µg/mL (≈ 11.4 µM)
MIC90 [19]: 2 µg/mL (≈ 2.85 µM)
MIC90 [20]: 2 µg/mL (≈ 2.85 µM)
MIC90 [21]: 2 µg/mL (≈ 2.85 µM)
MIC90 [22]: 4 µg/mL (≈ 5.71 µM)
MIC90 [23]: > 8 µg/mL
MIC [24]: 4 µg/mL (≈ 5.71 µM)
MIC90 [24]: 4 µg/mL (≈ 5.71 µM)
MIC90 [25]: > 8 µg/mL
MIC90 [26]: > 8 µg/mL
MIC [27]: > 8 µg/mL
MIC90 [27]: 8 µg/mL (≈ 11.4 µM)
